Test results as given in PubChem BioAssay (NCI).
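Results reflect a 48-hour exposure of cells in 96-well plates to compound at five concentrations. At the GI50, growth is halved. TGI: total growth inhibition.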

Columns and labels:
Assay in all cases: NCI anticancer screen, dose series, 48 h
CCRF-CEM leukemia = tested on: CCRF-CEM leukemia
MOLT-4 leukemia = tested on: MOLT-4 leukemia
K-562 leukemia = tested on: K-562 leukemia
LOX IMVI melanoma = tested on: LOX IMVI melanoma
HS 578T breast = tested on: HS 578T breast
RPMI-8226 leukemia = tested on: RPMI-8226 leukemia
OVCAR-4 ovarian = tested on: OVCAR-4 ovarian
U251 CNS = tested on: U251 CNS
SW-620 colon = tested on: SW-620 colon
OVCAR-8 ovarian = tested on: OVCAR-8 ovarian
NCI-H460 lung = tested on: NCI-H460 lung
M14 melanoma = tested on: M14 melanoma
NCI-H226 lung = tested on: NCI-H226 lung
OVCAR-5 ovarian = tested on: OVCAR-5 ovarian
HCT-116 colon = tested on: HCT-116 colon
NCI/ADR-RES ovarian = tested on: NCI/ADR-RES ovarian
A549 NSCLC = tested on: A549 NSCLC
T-47D breast = tested on: T-47D breast
SK-MEL-5 melanoma = tested on: SK-MEL-5 melanoma
MDA-MB-231 breast = tested on: MDA-MB-231 breast
HOP-62 NSCLC = tested on: HOP-62 NSCLC
ACHN renal = tested on: ACHN renal
SNB-19 CNS = tested on: SNB-19 CNS
MDA-MB-435 = tested on: MDA-MB-435
MCF7 breast = tested on: MCF7 breast
KM12 colon = tested on: KM12 colon
786-0 renal = tested on: 786-0 renal
EKVX NSCLC = tested on: EKVX NSCLC
SN12C renal = tested on: SN12C renal
UO-31 renal = tested on: UO-31 renal
CAKI-1 renal = tested on: CAKI-1 renal
SK-OV-3 ovarian = tested on: SK-OV-3 ovarian
HCC-2998 colon = tested on: HCC-2998 colon
HCT-15 colon = tested on: HCT-15 colon
IGROV1 ovarian = tested on: IGROV1 ovarian
UACC-257 melanoma = tested on: UACC-257 melanoma
SF-295 CNS = tested on: SF-295 CNS
RXF 393 renal = tested on: RXF 393 renal
UACC-62 melanoma = tested on: UACC-62 melanoma
BT-549 breast = tested on: BT-549 breast
NCI-H522 lung = tested on: NCI-H522 lung
HT29 colon = tested on: HT29 colon
NCI-H23 lung = tested on: NCI-H23 lung
SNB-75 CNS = tested on: SNB-75 CNS
OVCAR-3 ovarian = tested on: OVCAR-3 ovarian
HOP-92 NSCLC = tested on: HOP-92 NSCLC
PC-3 prostate = tested on: PC-3 prostate
SF-268 CNS = tested on: SF-268 CNS
SK-MEL-28 melanoma = tested on: SK-MEL-28 melanoma
SK-MEL-2 melanoma = tested on: SK-MEL-2 melanoma
COLO 205 colon = tested on: COLO 205 colon
SF-539 CNS = tested on: SF-539 CNS
DU-145 prostate = tested on: DU-145 prostate

SMILES: C#Cc1ccc(-n2c(/C=C/c3ccc(Cl)c(F)c3)nc3ncccc3c2=O)cc1
- GI50 (CCRF-CEM leukemia): 0.29 µM
- TGI (CCRF-CEM leukemia): > 100 µM
- GI50 (MOLT-4 leukemia): 0.546 µM
- TGI (MOLT-4 leukemia): > 100 µM
- GI50 (K-562 leukemia): 0.337 µM
- TGI (K-562 leukemia): > 100 µM
- GI50 (LOX IMVI melanoma): 0.183 µM
- TGI (LOX IMVI melanoma): 0.504 µM
- GI50 (HS 578T breast): 0.419 µM
- TGI (HS 578T breast): > 100 µM
- GI50 (RPMI-8226 leukemia): 0.351 µM
- TGI (RPMI-8226 leukemia): 2.03 µM
- GI50 (OVCAR-4 ovarian): 270 nM
- TGI (OVCAR-4 ovarian): 1030 nM

SMILES: COc1ccc(-c2cc(-c3cc(Cl)ccc3Cl)nc3[nH]c(-c4cc(F)c(Cl)cc4Cl)cc(=O)c23)cc1
- GI50 (CCRF-CEM leukemia): 18.4 µM
- TGI (CCRF-CEM leukemia): 55.1 µM
- GI50 (U251 CNS): 21.8 µM
- TGI (U251 CNS): 61.6 µM
- GI50 (SW-620 colon): 20 µM
- TGI (SW-620 colon): > 100 µM
- GI50 (OVCAR-8 ovarian): 17 µM
- TGI (OVCAR-8 ovarian): 51.3 µM
- GI50 (NCI-H460 lung): 87.3 µM
- TGI (NCI-H460 lung): > 100 µM
- GI50 (M14 melanoma): 13.5 µM
- TGI (M14 melanoma): 35.8 µM
- GI50 (MOLT-4 leukemia): 24.2 µM
- TGI (MOLT-4 leukemia): 68.6 µM
- GI50 (NCI-H226 lung): 20.5 µM
- TGI (NCI-H226 lung): 63.6 µM
- GI50 (OVCAR-5 ovarian): 22.2 µM
- TGI (OVCAR-5 ovarian): 89.2 µM
- GI50 (K-562 leukemia): 29.3 µM
- TGI (K-562 leukemia): > 100 µM
- GI50 (HCT-116 colon): 9.69 µM
- TGI (HCT-116 colon): 24.7 µM
- GI50 (NCI/ADR-RES ovarian): 4.95 µM
- TGI (NCI/ADR-RES ovarian): 23.2 µM
- GI50 (A549 NSCLC): 14.2 µM
- TGI (A549 NSCLC): 74.7 µM
- GI50 (T-47D breast): > 100 µM
- TGI (T-47D breast): > 100 µM
- GI50 (LOX IMVI melanoma): 15.3 µM
- TGI (LOX IMVI melanoma): 34.4 µM
- GI50 (SK-MEL-5 melanoma): 7.63 µM
- TGI (SK-MEL-5 melanoma): 33.4 µM
- GI50 (MDA-MB-231 breast): 20.7 µM
- TGI (MDA-MB-231 breast): 83.8 µM
- GI50 (HS 578T breast): 8.19 µM
- TGI (HS 578T breast): 50.4 µM
- GI50 (HOP-62 NSCLC): 5.52 µM
- TGI (HOP-62 NSCLC): 32.2 µM
- GI50 (ACHN renal): 19.9 µM
- TGI (ACHN renal): 69 µM
- GI50 (SNB-19 CNS): 64.1 µM
- TGI (SNB-19 CNS): > 100 µM
- GI50 (RPMI-8226 leukemia): 25 µM
- TGI (RPMI-8226 leukemia): 69.1 µM
- GI50 (MDA-MB-435): 6.4 µM
- TGI (MDA-MB-435): > 100 µM
- GI50 (MCF7 breast): 60.9 µM
- TGI (MCF7 breast): > 100 µM
- GI50 (KM12 colon): 21.7 µM
- TGI (KM12 colon): 67.1 µM
- GI50 (786-0 renal): 20.4 µM
- TGI (786-0 renal): 52 µM
- GI50 (EKVX NSCLC): 45 µM
- TGI (EKVX NSCLC): > 100 µM
- GI50 (SN12C renal): 24.5 µM
- TGI (SN12C renal): 76.8 µM
- GI50 (UO-31 renal): 59.5 µM
- TGI (UO-31 renal): > 100 µM
- GI50 (CAKI-1 renal): 34.1 µM
- TGI (CAKI-1 renal): > 100 µM
- GI50 (SK-OV-3 ovarian): 84.6 µM
- TGI (SK-OV-3 ovarian): > 100 µM
- GI50 (HCC-2998 colon): 15.1 µM
- TGI (HCC-2998 colon): 32.3 µM
- GI50 (HCT-15 colon): 17.1 µM
- TGI (HCT-15 colon): 56.1 µM
- GI50 (IGROV1 ovarian): 16.5 µM
- TGI (IGROV1 ovarian): > 100 µM
- GI50 (UACC-257 melanoma): 21 µM
- TGI (UACC-257 melanoma): > 100 µM
- GI50 (SF-295 CNS): 23.8 µM
- TGI (SF-295 CNS): > 100 µM
- GI50 (RXF 393 renal): 17.4 µM
- TGI (RXF 393 renal): > 100 µM
- GI50 (UACC-62 melanoma): 14.3 µM
- TGI (UACC-62 melanoma): 93.4 µM
- GI50 (BT-549 breast): 29.6 µM
- TGI (BT-549 breast): > 100 µM
- GI50 (NCI-H522 lung): 20.4 µM
- TGI (NCI-H522 lung): > 100 µM
- GI50 (OVCAR-4 ovarian): > 100000 nM
- TGI (OVCAR-4 ovarian): > 100000 nM
- GI50 (HT29 colon): 39.2 µM
- TGI (HT29 colon): > 100 µM
- GI50 (NCI-H23 lung): 14.7 µM
- TGI (NCI-H23 lung): 55.8 µM
- GI50 (SNB-75 CNS): > 100 µM
- TGI (SNB-75 CNS): > 100 µM
- GI50 (OVCAR-3 ovarian): > 100 µM
- TGI (OVCAR-3 ovarian): > 100 µM
- GI50 (HOP-92 NSCLC): 35.3 µM
- TGI (HOP-92 NSCLC): > 100 µM
- GI50 (PC-3 prostate): 39.3 µM
- TGI (PC-3 prostate): > 100 µM
- GI50 (SF-268 CNS): > 100 µM
- TGI (SF-268 CNS): > 100 µM
- GI50 (SK-MEL-28 melanoma): > 100 µM
- TGI (SK-MEL-28 melanoma): > 100 µM
- GI50 (SK-MEL-2 melanoma): 64.8 µM
- TGI (SK-MEL-2 melanoma): > 100 µM
- GI50 (COLO 205 colon): 43.6 µM
- TGI (COLO 205 colon): > 100 µM
- GI50 (SF-539 CNS): 18.9 µM
- TGI (SF-539 CNS): 55 µM
- GI50 (DU-145 prostate): 31.3 µM
- TGI (DU-145 prostate): > 100 µM
